Test [1] has as its system advanced melanoma with the V600E BRAF mutation. To be noted: patients with the V600E BRAF mutation, Phase I; cited from earlier work.
In test [2] the test system is BRAF mutated advanced melanoma. The settings on record: cited from earlier work.
The subject of test [3] is V600E mutated melanoma cell lines sensitive to BRAF-I. Description: Development of secondary resistance on in vitro treatment with increasing doses, MTT assay. In kind it is cell-based, human. The settings on record: increasing doses (2.5-10 μM).
Procedure: The cell line M21 (harboring the V600E BRAF missense mutation) (4×10^5/well) was cultured in a 6-well plate containing RPMI 1640 medium supplemented with 10% FBS and 2.5 μM of PLX4720. Medium was changed every 4 days. On the 8th day the concentration of PLX4720 was increased to 5 μM. Cells were cultured under these conditions for 12 days changing the medium every 4 days. Then the concentration of PLX4720 in the medium was increased to 10 μM, and the medium has been changed every 3 days. Cells were cultured until when resistant colonies appeared (around 3 weeks). Cells were tested for resistance to BRAF-I PLX4720 by analyzing their growth in the presence of 10 μM of PLX4720, using the MTT assay.
In test [4] the test system is GRP94 expression by M21 melanoma cell line. Put plainly: Effect of BRAF-I on GRP94 expression, staining with mAb W9, flow cytometry. The class given is cell-based, human. The settings on record: M21 cells, 1 μM of PLX4720, 14 days, vs untreated cells. (A flow cytometer gives signals particle by particle.)
Procedure: Effect of BRAF-I on GRP94 expression by M21 melanoma cell line. Cells (2×10^5/ml) were incubated in RPMI 1640 medium containing 10% FCS with 1 μM of BRAF-I for 14 days. […] Untreated cells were used as control. Percentage of stained cells and mean fluorescence intensity (MFI) are indicated.
M21 cells were cultured in RPMI 1640 medium supplemented with 10% FBS and 1 μM of PLX4720. Cells were harvested after 14 days of culture, and washed twice with PBS-BSA. Cells (1×10^5/sample), and were stained with 1 μg of anti-GRP94 mAb W9. Human IgG (HIg) and untreated cells were used as controls. Following an incubation of 30 min at 4° C., cells were washed three times with PBS containing 2% of BSA (PBS-BSA). Cells were then incubated with an appropriate dilution of PE-conjugated anti-human IgG for 30 min at 4° C. Cells were washed and fixed with 2% PFA. Immunofluorescence was measured using a Cyan cytofluorimeter.
M21 cells were cultured in RPMI 1640 medium supplemented with 10% FBS and 1 μM of PLX4720. Cells were harvested after 14 days of culture, and washed twice with PBS-BSA. Cells (1×10^5/sample), and were stained with 1 μg of anti-GRP94 mAb W9. Human IgG (HIg) and untreated cells were used as controls. Following an incubation of 30 min at 4° C., cells were washed three times with PBS containing 2% of BSA (PBS-BSA). […]

Turning to `CCCS(=O)(=O)Nc1ccc(F)c(C(=O)c2c[nH]c3ncc(-c4ccc(Cl)cc4)cc23)c1F` [PLX4032, Vemurafenib], in test [1], the “tumor regression and overall survival” value is “effective in promoting tumor regression and increasing overall survival”. Moreover, the response rate in test [2] (32 BRAF mutated advanced melanoma patients, phase II study) is 70%. Moreover, the “median duration of response” value in test [2] (patients, secondary resistance) is on record as around 8 months.
With `CCCS(=O)(=O)Nc1ccc(F)c(C(=O)c2c[nH]c3ncc(Cl)cc23)c1F` [PLX4720], the “time of in vitro treatment until cell lines became secondary resistant” value in test [3] is reported as 3-4 week. The “expression of GRP94” value in test [4] is on record as “increased expression of GRP94”.
